Test: xn = mol fraction of the nth substance listed
Conditions: Liquid, Vibrating tube method

CC(C)=O [acetone] + CCCCCCC
Conditions | mass density [kg/m3]
357.56 K, 109800 kPa, x1 = 0.492 | 744.86
357.56 K, 109860 kPa, x1 = 0.611 | 755.29
357.56 K, 114650 kPa, x1 = 0.4 | 797.46
357.56 K, 114650 kPa, x1 = 0.8992 | 797.46
357.56 K, 114760 kPa, x1 = 0.492 | 747.47
357.56 K, 114840 kPa, x1 = 0.801 | 781.49
357.56 K, 114860 kPa, x1 = 0.611 | 758
357.56 K, 119620 kPa, x1 = 0.4 | 800.25
357.56 K, 119620 kPa, x1 = 0.8992 | 800.25
357.56 K, 119840 kPa, x1 = 0.611 | 760.62
357.56 K, 119850 kPa, x1 = 0.492 | 750.09
357.56 K, 124590 kPa, x1 = 0.4 | 802.96
357.56 K, 124590 kPa, x1 = 0.8992 | 802.96
357.56 K, 124850 kPa, x1 = 0.492 | 752.62
357.56 K, 124850 kPa, x1 = 0.611 | 763.18
357.56 K, 124850 kPa, x1 = 0.801 | 786.88
357.56 K, 129540 kPa, x1 = 0.4 | 805.62
357.56 K, 129540 kPa, x1 = 0.8992 | 805.62
357.56 K, 129840 kPa, x1 = 0.492 | 755.04
357.56 K, 129850 kPa, x1 = 0.611 | 765.68
357.57 K, 19850 kPa, x1 = 0.801 | 705.47
357.57 K, 24850 kPa, x1 = 0.801 | 711.56
357.57 K, 29850 kPa, x1 = 0.801 | 717.2
357.57 K, 39860 kPa, x1 = 0.801 | 727.56
357.57 K, 44860 kPa, x1 = 0.801 | 732.3
357.57 K, 49830 kPa, x1 = 0.801 | 736.79
357.57 K, 54840 kPa, x1 = 0.801 | 741.09
357.57 K, 79870 kPa, x1 = 0.801 | 760
357.57 K, 109760 kPa, x1 = 0.801 | 778.61
357.57 K, 119850 kPa, x1 = 0.801 | 784.21
357.57 K, 129840 kPa, x1 = 0.801 | 789.47
367.47 K, 1110 kPa, x1 = 0.7024 | 653.24
367.47 K, 4830 kPa, x1 = 0.7024 | 660.5
367.47 K, 9820 kPa, x1 = 0.7024 | 669.16
367.47 K, 14810 kPa, x1 = 0.7024 | 676.86
367.47 K, 19800 kPa, x1 = 0.7024 | 683.87
367.47 K, 24870 kPa, x1 = 0.7024 | 690.44
367.47 K, 29900 kPa, x1 = 0.7024 | 696.42
367.47 K, 29980 kPa, x1 = 0.4 | 723.61
367.47 K, 29980 kPa, x1 = 0.8992 | 723.61
367.47 K, 34870 kPa, x1 = 0.7024 | 701.98
367.47 K, 39870 kPa, x1 = 0.7024 | 707.22
367.47 K, 44860 kPa, x1 = 0.7024 | 712.14
367.47 K, 49850 kPa, x1 = 0.7024 | 716.78
367.47 K, 54840 kPa, x1 = 0.7024 | 721.18
367.47 K, 59880 kPa, x1 = 0.4 | 753.02
367.47 K, 59880 kPa, x1 = 0.8992 | 753.02
367.47 K, 64830 kPa, x1 = 0.7024 | 729.41
367.47 K, 69810 kPa, x1 = 0.7024 | 733.25
367.47 K, 79780 kPa, x1 = 0.7024 | 740.5
367.47 K, 89740 kPa, x1 = 0.7024 | 747.21
367.47 K, 94830 kPa, x1 = 0.7024 | 750.48
367.47 K, 99830 kPa, x1 = 0.7024 | 753.58
367.47 K, 104830 kPa, x1 = 0.7024 | 756.58
367.47 K, 109810 kPa, x1 = 0.7024 | 759.49
367.47 K, 114820 kPa, x1 = 0.7024 | 762.32
367.47 K, 119810 kPa, x1 = 0.7024 | 765.08
367.47 K, 124820 kPa, x1 = 0.7024 | 767.78
367.47 K, 129810 kPa, x1 = 0.7024 | 770.39
367.48 K, 1150 kPa, x1 = 0.611 | 644.69
367.48 K, 5040 kPa, x1 = 0.4 | 687.92
367.48 K, 5040 kPa, x1 = 0.8992 | 687.92
367.48 K, 9850 kPa, x1 = 0.611 | 660.49
367.48 K, 10030 kPa, x1 = 0.4 | 696.45
367.48 K, 10030 kPa, x1 = 0.8992 | 696.45
367.48 K, 15010 kPa, x1 = 0.4 | 704.13
367.48 K, 15010 kPa, x1 = 0.8992 | 704.13
367.48 K, 19860 kPa, x1 = 0.611 | 675.16
367.48 K, 20000 kPa, x1 = 0.4 | 711.11
367.48 K, 20000 kPa, x1 = 0.8992 | 711.11
367.48 K, 24860 kPa, x1 = 0.611 | 681.55
367.48 K, 25000 kPa, x1 = 0.4 | 717.58
367.48 K, 25000 kPa, x1 = 0.8992 | 717.58
367.48 K, 29870 kPa, x1 = 0.611 | 687.49
367.48 K, 34860 kPa, x1 = 0.611 | 693
367.48 K, 39940 kPa, x1 = 0.4 | 734.49
367.48 K, 39940 kPa, x1 = 0.8992 | 734.49
367.48 K, 44850 kPa, x1 = 0.611 | 703
367.48 K, 44920 kPa, x1 = 0.4 | 739.45
367.48 K, 44920 kPa, x1 = 0.8992 | 739.45
367.48 K, 49910 kPa, x1 = 0.4 | 744.24
367.48 K, 49910 kPa, x1 = 0.8992 | 744.24
367.48 K, 49940 kPa, x1 = 0.611 | 707.7
367.48 K, 54900 kPa, x1 = 0.4 | 748.72
367.48 K, 54900 kPa, x1 = 0.8992 | 748.72
367.48 K, 54920 kPa, x1 = 0.611 | 712.06
367.48 K, 59830 kPa, x1 = 0.7024 | 725.38
367.48 K, 64860 kPa, x1 = 0.4 | 757.11
367.48 K, 64860 kPa, x1 = 0.8992 | 757.11
367.48 K, 64900 kPa, x1 = 0.611 | 720.16
367.48 K, 69840 kPa, x1 = 0.4 | 761.04

From the NIST ThermoML archive (doi:10.1016/j.fluid.2010.10.028)
